Assay results from article PMC10485887, “PET Evaluation of the Novel F-18 Labeled Reversible Radioligand [^18F]GEH200449 for Detection of Monoamine Oxidase-B in the Non-Human Primate Brain” (ACS Chemical Neuroscience, 2023).
Values joined by “and” are separate entries in the source; they are usually repeats but may differ in a detail not shown here. Identical values can stand only once. Like-named read-outs stand apart in the source and are kept apart here.

Key:
[1] = tested on: MAO-B; type: in vivo, Macaca fascicularis
Experimental: Each PET measurement was performed on a separate experimental day. Experiments conducted in the same NHP were separated by at least 6 weeks. Baseline PET measurements were initially undertaken in each of the five NHPs.
Time curves for regional [^18F]GEH200449 binding at baseline were analyzed by kinetic modeling using 1-TC and 2-TC models,[32] and VT as outcome measures. Akaike information criterion[33] and F statistics were applied to select the preferred model. Regional estimates of VT for [^18F]GEH200449 were also obtained using the Logan linear graphical method[34] with t* fixed at 40 min. The analyses were performed using the kinetic modeling tool in PMOD v. 4.3. Occupancy at [^18F]GEH200449 binding sites was estimated based on regional VT values obtained by the Logan method at baseline and after drug administration according to a graphical procedure described in the literature.[22]

[2] = tested on: MAO-B; parameters: method as in PMID 31589885; settings: cited from earlier work

For N#Cc1cc(F)cc(-c2nc(-c3ccc(F)cn3)no2)c1 [AZD9272], the “effect on [^18F]GEH200449 regional radioactivity” value ([1]; 0.15 mg/kg, 15 min before PET, NHP #3) is given as “reduction” and the “affinity toward MAO-B” value [2] is given as “high affinity”.

For CN1CC(=O)NC1=NC(=O)Nc1cccc(Cl)c1 [fenobam], the “effect on [^18F]GEH200449 regional radioactivity” value ([1]; 1.0 mg/kg, 15 min before PET, NHP #5) is listed as “reduction” and the “affinity toward MAO-B” value [2] is listed as “high affinity”.

For C#CCN[C@@H]1CCc2ccccc21 [rasagiline, N-Propargyl-1R(+)-Aminoindan], the “occupancy at MAO-B ([^18F]GEH200449 binding sites)” value ([1]; 0.75 mg/kg IV, 45 min before radioligand, NHP #4, graphical analysis of VT) was 97% and > 80%, the “inhibitory effect on [^18F]GEH200449 binding, dose dependency” value ([1]; 0.25 and 0.75 mg/kg pretreatment, NHP #4) was “more pronounced after the higher dose” and the “effect on [^18F]GEH200449 regional radioactivity” value ([1]; pretreatment 45 min before radioligand injection) was “inhibited”.
